Results published in the NIST ThermoML archive (doi:10.1016/j.fluid.2014.01.008).
Numbers after ± are expanded uncertainties.

Conditions: Crystal; DTA

Normal melting temperature: 52.80 ± 0.5 °C
Structure (SMILES): O=C1C=CC(=O)O1 [maleic anhydride]
